These results are taken from patent US20040057908A1, “Oral compositions and use thereof” (priority 2003, published 2004).

The target of test [1] is T1, GTF B (Streptococcus mutans serotype c, UniProt P08987).
T1 construct: made in house; host or cells: Streptococcus milleri KSB8 (culture supernatant)
Nature of the test: GTF activity in solution, GTF B. Format: biochemical. Particulars: read-out: GTF B sol. % of Inhib. As for the experimental part:
(§1) Glucosyltransferase activity was measured by the incorporation of [^14C-glucose] from labeled sucrose (NEN Research Products, Boston, Mass.) into glucans (Germaine et al., 1974; Venkitaraman et al., 1995). The GTF enzyme added to each sample for all assays was equivalent to the amount required to incorporate 1.0-1.5 μmol of glucose over the four hours reaction (1.0-1.5 units).
(§2) For solution assays, purified GTF B, C, D and Ss were mixed with a two-fold dilution series of the test compounds (concentration ranging from 125 to 500 μM) and incubated with [^14C-glucose]-sucrose substrate (0.2 μCi/ml) (200.0 mmol/l sucrose, 40 μmol/l dextran 9000, 0.02% sodium azide in adsorption buffer—50 mM KCl, 1.0 mM KPO4, 1.0 mM CaCl2, 0.1 mM MgCl2−pH=6.5) to reach a final concentration of 100 mmol/l sucrose (200 μl final volume). For the control, the same reaction was carried out, where ethanol:DMSO (final concentration of 7.5% and 1.25%, v/v) or ethanol (final concentration of 5%, v/v) replaced the test agent solutions. The samples were incubated 37° C. with rocking for 4 h. After incubation, ice-cold ethanol (1.0 ml) was added and the samples were stored for 18 h, 4° C. for precipitation of glucans. Radiolabeled glucan was determined by scintillation counting (Germaine et al., 1974; Venkitaraman et al., 1995).

For test [2], the target named is T1, GTF B. Nature of the test: GTF activity adsorbed onto saliva-coated hydroxyapatite (sHA) surface, GTF B. In kind it is biochemical. The protocol:
as §1
(§3) For surface assays, the GTFs were adsorbed to hydroxyapatite beads coated with clarified whole saliva (free of GTF activity), as detailed elsewhere (Koo et al., 2000c; Schilling and Bowen, 1988, Venkitaraman et al., 1995). The saliva-coated hydroxyapatite (sHA) beads were exposed to sufficient enzyme to saturate the surface as determined experimentally. Following the adsorption of the enzyme, the beads were washed 3 times with buffer to remove the loosely bound material and exposed to 300 μl of the two-fold dilution series of test compounds (or control) for 30 min. at the same concentrations described above. The beads were washed and exposed to 300 μl [^14C-glucose]-sucrose substrate (100.0 mmol/l sucrose, final concentration). The radiolabeled glucan formed was collected and quantified by scintillation counting (Germaine et al., 1974; Venkitaraman et al., 1995). All the solution and surface assays were done in quadruplicate in at least 3 different experiments.

For test [3], the target named is T2, GTF D (Streptococcus mutans serotype c, UniProt P49331).
T2 construct: made in house; host or cells: Streptococcus milleri NH5 (culture supernatant)
The test is described as follows: GTF activity in solution, GTF D. In kind it is biochemical. Particulars: read-out: GTF D sol. % of Inhib. As for the experimental part: as §1, §2

Test [4] has as its target T2, GTF D. Nature of the test: GTF activity adsorbed onto sHA surface, GTF D. In kind it is biochemical. As for the experimental part: as §1, §3
Test [5] has as its system Mutans Streptococci Strains. Nature of the test: MIC and MBC, broth dilution, all strains stated together. Format: cell-based, S. mutans (GS-5 and UA159) and S. sobrinus 6715. Particulars: Streptococcus mutans; all strains tested (S. mutans GS-5, UA159, S. sobrinus 6715); read-out: MIC. As for the experimental part: The minimum inhibitory concentration (MIC) and minimum bactericidal concentration (MBC) were determined for each test compound according to the National Committee for Clinical Laboratory Standards guidelines (Tentative standard M26-T, 1992; NCCLS Publication No. M7-A5, 2000) and Koo et al. (2000b). The broth microdilution and macrodilution methods (in TSB) were used for the antibacterial tests. The starting inoculum was 5×10^5 CFU/ml and the concentrations of test compounds ranged from 15.6 to 500 μM (two-fold dilutions). The MICs and MBCs were determined in quadruplicate in at least 3 different experiments.

Test [6] deals with S. mutans UA159 and S. sobrinus 6715 biofilms. Nature of the test: Time-kill assay in 5-day-old biofilms. Particulars: 1.33 mM (fluoride 250 ppm). In kind it is cell-based. As for the experimental part: Cells of mutans streptococci were grown in tryptone-yeast extract broth with addition of 1% (w/v) sucrose at 37° C. and 5% CO2. […] The killing assays were performed according to Phan et al. (2000). […] The homogenized suspension was serially diluted (10^1 to 10^4) and plated on tryptic soy agar or blood agar by means of a spiral plater (Autoplate model 3000, Spiral Biotech, Inc., Bethesda, Md). […] Killing curves were constructed by plotting log10 CFU/ml versus time over 4 h. All the assays were carried out in quadruplicate on at least 3 different occasions. Bactericidal effect was defined as a ≧3 log10 decreases in the CFU/ml from initial viable counts, at time zero. The potential for drug carry-over to produce falsely low viability counts was minimized by dilution of inocula and plating of small volumes of diluted samples (50 μl).

For test [7], the system named is Streptococcus sobrinus 6715. Nature of the test: Rat caries experiment: S. sobrinus recovered from the jaws. Format: in vivo, Sprague Dawley rats. Particulars: rats, topical twice daily, five weeks; 1.33 mM (fluoride 250 ppm); means (SD). As for the experimental part: (§4) Seven litters of ten female Sprague Dawley rats aged 14 days were purchased with their dams from Charles River (Kingston, N.Y., USA). […] The experiment proceeded for five weeks, at which time the animals were killed by CO2 asphyxiation. The lower left jaw was aseptically dissected, suspended in 5.0 mL of sterile saline solution, and sonicated (three 10-second pulses with 5-second intervals at 30 watts, Branson Sonifier 450). The suspension was plated on mitis salivarius agar plus streptomycin to estimate S. sobrinus population and on blood agar to determine total cultivable flora (TCF). […] The determination of caries score was blind by codification of the jaws and was done by 1 calibrated examiner. […] The level of significance was 5%.

Another test concerns dental caries. Nature of the test: Rat caries experiment: caries scores (Larson's modification of Keyes' system). In kind it is in vivo, Sprague Dawley rats. Particulars: Ds and Dm levels; tt-farnesol Dm only; p<0.05. As for the experimental part: as §4
Another test deals with biofilms. Nature of the test: Formation of biofilms (continued research). Format: cell-based.
Setting [8] is: read-out: GTF B surf. % of Inhib.
Where [9] appears, read: read-out: GTF D surf. % of Inhib.

“And” between values parts separate entries of the source, which are not always exact repeats. Identical values can stand only once. “Also recorded” adds a separate entry of the source.

T2 sequence (P49331 whole entry): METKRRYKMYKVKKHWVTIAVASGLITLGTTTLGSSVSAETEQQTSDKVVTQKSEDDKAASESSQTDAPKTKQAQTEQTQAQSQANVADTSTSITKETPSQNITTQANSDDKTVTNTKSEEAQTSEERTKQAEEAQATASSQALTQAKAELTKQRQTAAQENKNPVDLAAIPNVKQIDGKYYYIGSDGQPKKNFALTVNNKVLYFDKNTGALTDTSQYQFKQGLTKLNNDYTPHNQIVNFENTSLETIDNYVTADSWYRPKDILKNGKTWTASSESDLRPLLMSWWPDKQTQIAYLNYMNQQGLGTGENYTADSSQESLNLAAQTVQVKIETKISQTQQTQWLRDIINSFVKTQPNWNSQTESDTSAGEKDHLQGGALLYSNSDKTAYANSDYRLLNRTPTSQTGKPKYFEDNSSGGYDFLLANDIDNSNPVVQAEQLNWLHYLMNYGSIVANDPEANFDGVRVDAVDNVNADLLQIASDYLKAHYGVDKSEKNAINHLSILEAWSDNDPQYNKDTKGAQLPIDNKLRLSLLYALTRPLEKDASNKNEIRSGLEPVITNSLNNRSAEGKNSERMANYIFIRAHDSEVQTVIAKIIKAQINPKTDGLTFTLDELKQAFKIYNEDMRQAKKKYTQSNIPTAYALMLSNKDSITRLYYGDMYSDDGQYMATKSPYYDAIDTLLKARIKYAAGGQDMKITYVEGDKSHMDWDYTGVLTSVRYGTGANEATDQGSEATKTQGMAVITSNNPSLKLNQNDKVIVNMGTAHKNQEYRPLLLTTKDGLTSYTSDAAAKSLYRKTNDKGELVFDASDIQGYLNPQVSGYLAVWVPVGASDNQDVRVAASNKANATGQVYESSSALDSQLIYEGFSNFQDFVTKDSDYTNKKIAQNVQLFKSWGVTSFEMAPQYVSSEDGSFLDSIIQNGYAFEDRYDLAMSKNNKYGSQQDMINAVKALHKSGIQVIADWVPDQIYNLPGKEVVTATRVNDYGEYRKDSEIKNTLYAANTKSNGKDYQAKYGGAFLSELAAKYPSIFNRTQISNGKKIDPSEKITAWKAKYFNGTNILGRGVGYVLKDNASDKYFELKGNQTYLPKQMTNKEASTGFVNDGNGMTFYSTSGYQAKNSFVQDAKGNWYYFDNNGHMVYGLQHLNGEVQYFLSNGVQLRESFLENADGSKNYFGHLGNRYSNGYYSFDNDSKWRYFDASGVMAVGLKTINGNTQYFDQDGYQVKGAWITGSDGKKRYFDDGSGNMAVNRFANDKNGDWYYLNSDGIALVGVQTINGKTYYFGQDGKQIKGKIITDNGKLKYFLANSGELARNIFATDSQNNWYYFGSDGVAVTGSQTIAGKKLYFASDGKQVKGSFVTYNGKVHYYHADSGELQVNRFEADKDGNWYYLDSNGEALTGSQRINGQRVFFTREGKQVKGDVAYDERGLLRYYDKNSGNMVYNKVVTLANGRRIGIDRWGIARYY
T1 sequence (P08987 35-1476): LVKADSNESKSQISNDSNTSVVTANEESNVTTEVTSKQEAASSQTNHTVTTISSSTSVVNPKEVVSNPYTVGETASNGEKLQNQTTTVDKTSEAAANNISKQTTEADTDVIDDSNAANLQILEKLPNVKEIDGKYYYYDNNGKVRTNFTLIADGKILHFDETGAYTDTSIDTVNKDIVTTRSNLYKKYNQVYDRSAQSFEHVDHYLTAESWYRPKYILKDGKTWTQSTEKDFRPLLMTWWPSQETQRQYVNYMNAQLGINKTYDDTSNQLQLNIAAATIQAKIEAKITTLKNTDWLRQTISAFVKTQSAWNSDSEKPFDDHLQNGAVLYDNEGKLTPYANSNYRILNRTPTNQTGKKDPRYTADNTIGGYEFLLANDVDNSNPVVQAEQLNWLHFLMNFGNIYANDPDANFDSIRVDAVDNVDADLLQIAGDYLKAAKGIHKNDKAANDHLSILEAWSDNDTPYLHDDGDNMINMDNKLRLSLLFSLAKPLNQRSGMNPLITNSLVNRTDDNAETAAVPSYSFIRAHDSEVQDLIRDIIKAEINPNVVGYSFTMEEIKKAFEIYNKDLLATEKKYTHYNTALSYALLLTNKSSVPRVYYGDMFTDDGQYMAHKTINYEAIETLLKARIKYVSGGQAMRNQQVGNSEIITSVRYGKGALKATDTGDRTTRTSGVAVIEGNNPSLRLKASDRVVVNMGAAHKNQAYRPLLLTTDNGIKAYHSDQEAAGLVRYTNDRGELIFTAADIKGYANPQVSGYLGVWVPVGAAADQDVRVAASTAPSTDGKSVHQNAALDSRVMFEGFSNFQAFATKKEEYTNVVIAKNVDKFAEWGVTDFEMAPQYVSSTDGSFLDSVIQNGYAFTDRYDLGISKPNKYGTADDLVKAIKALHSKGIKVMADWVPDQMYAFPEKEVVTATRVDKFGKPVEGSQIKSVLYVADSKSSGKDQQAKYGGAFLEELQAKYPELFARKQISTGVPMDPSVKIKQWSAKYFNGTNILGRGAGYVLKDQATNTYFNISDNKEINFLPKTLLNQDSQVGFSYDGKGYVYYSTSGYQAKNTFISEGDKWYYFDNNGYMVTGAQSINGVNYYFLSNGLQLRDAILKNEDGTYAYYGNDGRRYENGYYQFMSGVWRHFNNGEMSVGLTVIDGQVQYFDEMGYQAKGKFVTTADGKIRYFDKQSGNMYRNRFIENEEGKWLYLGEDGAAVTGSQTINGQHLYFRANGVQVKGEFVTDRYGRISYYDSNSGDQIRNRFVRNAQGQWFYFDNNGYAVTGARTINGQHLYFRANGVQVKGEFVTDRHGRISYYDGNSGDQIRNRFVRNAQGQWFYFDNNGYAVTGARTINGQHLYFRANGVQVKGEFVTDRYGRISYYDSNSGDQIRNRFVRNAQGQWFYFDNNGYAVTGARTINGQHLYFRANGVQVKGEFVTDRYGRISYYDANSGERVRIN

`O=c1cc(-c2ccc(O)cc2)oc2cc(O)cc(O)c12` [Apigenin]: the inhibition at 125 µM at GTF B [1] turned out to be 78.3%; at GTF B [2] (setting [8]) it was 31.8%; at GTF D [3] it was 70.8%; at GTF D [4] (setting [9]), 17%. Further, the inhibition at 250 µM on GTF B [1] came to 92.8%; at GTF B [2] (setting [8]) it was 40%; on GTF D [3] it was 90.2%; at GTF D [4] (setting [9]), 25.5%. Also, the inhibition at 500 µM amounted to 94.3% on GTF B [1], 55.5% at GTF B [2] (setting [8]), 95% at GTF D [3] and 33% at GTF D [4] (setting [9]). The IC50 against GTF B [2] (IC50 for surface-adsorbed GTF B, surface-adsorbed) was 478 µM and 474 µM; on GTF D [4], > 1000 µM. The MIC in [5] was > 500 µM. In test [6], the “antibacterial activity against mutans streptococci biofilms (in words)” value was “devoid of antibacterial effects; also recorded: negligible antibacterial activity”. Moreover, the “Infection by S. sobrinus, %” value in [7] is listed as 40.6 (14.2)^ab %. The “smooth-surface caries severity scores versus control (in words)” value with dental caries is listed as “significantly lower”. The “formation of biofilms (in words)” value in the test on biofilms was “inhibits formation of biofilms”.
